Reference: patent US8716284B2, “Adamantyl diamide derivatives and uses of same” (H. Lundbeck A/S, priority 2008, dated 2014)

Biological target: T1, rat metabotropic glutamate receptor 5 (mGluR5) (Rattus norvegicus, UniProt P31424)
T1 construct: expressed in transfected cells; host or cells: HEK 293
Assay: Calcium mobilization assay (FLIPR) for negative or positive allosteric activity, HEK 293 cells
Type: cell-based
Details: HEK293, negative allosteric modulation, inhibition of EC80 glutamate response; read-out: FLIPR maximum inhibition
Experimental: The cDNA for rat metabotropic glutamate receptor 5 (mGluR5) was a generous gift from S. Nakanishi (Kyoto University, Kyoto, Japan). The mGluR5 was stably expressed in a HEK 293 cell line and grown in Dulbecco's Modified Eagle Medium (DMEM) (Invitrogen, Carlsbad, Calif.) with supplements (10% bovine calf serum, 4 mM glutamine, 100 units/mL penicillin, 100 μg/mL streptomycin and 0.75 mM G1418) at 37° C., 5% CO2. Twenty-four hours prior to assay, cells were seeded into 384-well black wall microtiter plates coated with poly-D-lysine. Just prior to assay, media was aspirated and cells dye-loaded (25 μL/well) with 3 μM Fluo-4/0.01% pluronic acid in assay buffer (Hank's Balanced Saline Solution (HBSS)): 150 mM NaCl, 5 mM KCl, 1 mM CaCl2, 1 mM MgCl2, plus 20 mM N-2-Hydroxyethylpiperazine-N′-2-ethanesulfonic acid (HEPES), pH 7.4, 0.1% bovine serum albumin (BSA) and 2.5 mM probenicid) for 1 hour in 5% CO2 at 37° C. After excess dye was discarded, cells were washed in assay buffer and layered with a final volume equal to 30 μL/well. Basal fluorescence is monitored in a fluorometric imaging plate reader (FLIPR) (Molecular Devices, Sunnyvale, Calif.) with an excitation wavelength of 488 nm and an emission range of 500 to 560 nm. Laser excitation energy was adjusted so that basal fluorescence readings were approximately 10,000 relative fluorescent units. Cells were stimulated with an EC20 or an EC80 concentration of glutamate in the presence of a compound to be tested, both diluted in assay buffer, and relative fluorescent units were measured at defined intervals (exposure=0.6 sec) over a 3 min period at room temperature. Basal readings derived from negative controls were subtracted from all samples. Maximum change in fluorescence was calculated for each well. Concentration-response curves derived from the maximum change in fluorescence were analyzed by nonlinear regression (Hill equation). A negative modulator can be identified from these concentration-response curves if a compound produces a concentration dependent inhibition of the EC80 glutamate response. […] Examples 11-163 also were tested in the above assay.
A positive modulator can be identified from these concentration-response curves if a compound produces a concentration dependent increase in the EC20 glutamate response.

T1 sequence (P31424 21-1171 isoform P31424-2 limits assumed): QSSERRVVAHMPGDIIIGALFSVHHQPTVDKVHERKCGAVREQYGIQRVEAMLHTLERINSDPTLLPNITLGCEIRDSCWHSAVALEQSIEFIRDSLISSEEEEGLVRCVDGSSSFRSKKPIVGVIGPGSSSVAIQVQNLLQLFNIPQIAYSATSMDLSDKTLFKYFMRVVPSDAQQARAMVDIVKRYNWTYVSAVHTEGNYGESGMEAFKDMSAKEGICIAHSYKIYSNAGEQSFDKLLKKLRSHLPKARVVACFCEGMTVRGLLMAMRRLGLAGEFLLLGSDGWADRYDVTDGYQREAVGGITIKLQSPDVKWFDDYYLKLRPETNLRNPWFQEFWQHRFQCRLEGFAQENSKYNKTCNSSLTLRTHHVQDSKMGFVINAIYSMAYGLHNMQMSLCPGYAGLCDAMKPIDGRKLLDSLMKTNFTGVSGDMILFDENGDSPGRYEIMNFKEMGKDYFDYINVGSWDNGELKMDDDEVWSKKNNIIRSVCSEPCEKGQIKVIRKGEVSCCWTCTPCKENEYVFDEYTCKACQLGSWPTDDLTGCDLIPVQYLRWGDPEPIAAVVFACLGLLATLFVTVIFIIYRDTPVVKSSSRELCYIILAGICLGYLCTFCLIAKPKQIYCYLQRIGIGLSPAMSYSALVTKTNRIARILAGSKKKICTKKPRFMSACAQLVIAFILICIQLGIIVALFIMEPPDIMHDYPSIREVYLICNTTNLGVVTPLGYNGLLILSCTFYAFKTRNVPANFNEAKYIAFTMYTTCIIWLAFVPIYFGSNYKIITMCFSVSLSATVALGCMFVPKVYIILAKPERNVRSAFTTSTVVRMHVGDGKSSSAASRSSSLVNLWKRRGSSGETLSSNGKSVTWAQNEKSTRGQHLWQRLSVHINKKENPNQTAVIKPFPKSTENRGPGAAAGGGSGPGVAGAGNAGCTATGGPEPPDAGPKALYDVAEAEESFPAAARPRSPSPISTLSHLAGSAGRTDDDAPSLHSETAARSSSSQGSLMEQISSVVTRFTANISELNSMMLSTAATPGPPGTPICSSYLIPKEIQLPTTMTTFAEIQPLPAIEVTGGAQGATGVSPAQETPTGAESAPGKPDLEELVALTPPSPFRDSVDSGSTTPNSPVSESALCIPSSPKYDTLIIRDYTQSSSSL

| Compound | Emax |
| --- | --- |
| COc1cccc(C(=O)NC23CC4CC(C2)CC(NC(=O)c2ccccn2)(C4)C3)c1 [Example 80, Pyridine-2-carboxylic acid [3-(3-methoxy-benzoylamino)-adamantan-1-yl]-amide] | 63 to 99% |
| COc1ccc(C(=O)NC23CC4CC(C2)CC(NC(=O)c2ccccn2)(C4)C3)cc1 [Example 81, Pyridine-2-carboxylic acid [3-(4-methoxy-benzoylamino)-adamantan-1-yl]-amide] | 63 to 99% |
| O=C(NC12CC3CC(C1)CC(NC(=O)C1CCC1)(C3)C2)c1ccccn1 [Example 82, Pyridine-2-carboxylic acid [3-(cyclobutanecarbonyl-amino)-adamantan-1-yl]-amide] | 63 to 99% |
| O=C(NC12CC3CC(C1)CC(NC(=O)C1CC1(F)F)(C3)C2)c1ccccn1 (centres unmarked) [Example 83, Pyridine-2-carboxylic acid {3-[(2,2-difluoro-cyclopropanecarbonyl)-amino]-adamantan-1-yl}-amide] | 63 to 99% |
| O=C(NC12CC3CC(C1)CC(NC(=O)C1CCCCC1)(C3)C2)c1ccccn1 [Example 84, Pyridine-2-carboxylic acid [3-(cyclohexanecarbonyl-amino)-adamantan-1-yl]-amide] | 63 to 99% |
| O=C(NC12CC3CC(C1)CC(NC(=O)C1CCCC1)(C3)C2)c1ccccn1 [Example 85, Pyridine-2-carboxylic acid [3-(cyclopentanecarbonyl-amino)-adamantan-1-yl]-amide] | 63 to 99% |
| O=C(NC12CC3CC(C1)CC(NC(=O)c1cn4cc(Cl)ccc4n1)(C3)C2)c1ccccn1 [Example 86, 6-Chloro-imidazo[1,2-a]pyridine-2-carboxylic acid {3-[(pyridine-2-carbonyl)-amino]-adamantan-1-yl}-amide] | 63 to 99% |
| O=C(NC12CC3CC(C1)CC(NC(=O)c1ccccn1)(C3)C2)c1ccn2ccnc2c1 [Example 87, Imidazo[1,2-a]pyridine-7-carboxylic acid {3-[(pyridine-2-carbonyl)-amino]-adamantan-1-yl}-amide] | 63 to 99% |
| O=C(NC12CC3CC(C1)CC(NC(=O)c1cn4ccccc4n1)(C3)C2)c1ccccn1 [Example 88, Imidazo[1,2-a]pyridine-2-carboxylic acid {3-[(pyridine-2-carbonyl)-amino]-adamantan-1-yl}-amide] | 63 to 99% |
| O=C(NC12CC3CC(C1)CC(NC(=O)c1ccccn1)(C3)C2)c1ccc2nccn2c1 [Example 89, Imidazo[1,2-a]pyridine-6-carboxylic acid {3-[(pyridine-2-carbonyl)-amino]-adamantan-1-yl}-amide] | 63 to 99% |
| Cc1ccc2nc(C(=O)NC34CC5CC(CC(NC(=O)c6ccccn6)(C5)C3)C4)cn2c1 [Example 90, 6-Methyl-imidazo[1,2-a]pyridine-2-carboxylic acid {3-[(pyridine-2-carbonyl)-amino]-adamantan-1-yl}-amide] | 63 to 99% |
| Cc1ccn2cc(C(=O)NC34CC5CC(CC(NC(=O)c6ccccn6)(C5)C3)C4)nc2c1 [Example 91, 7-Methyl-imidazo[1,2-a]pyridine-2-carboxylic acid {3-[(pyridine-2-carbonyl)-amino]-adamantan-1-yl}-amide] | 63 to 99% |
| Cc1cccc2nc(C(=O)NC34CC5CC(CC(NC(=O)c6ccccn6)(C5)C3)C4)cn12 [Example 92, 5-Methyl-imidazo[1,2-a]pyridine-2-carboxylic acid {3-[(pyridine-2-carbonyl)-amino]-adamantan-1-yl}-amide] | 63 to 99% |
| Cn1ccc(C(=O)NC23CC4CC(CC(NC(=O)c5cccc(F)c5)(C4)C2)C3)n1 [Example 97, 1-Methyl-1H-pyrazole-3-carboxylic acid [3-(3-fluoro-benzoylamino)-adamantan-1-yl]-amide] | 63 to 99% |
| O=C(NC12CC3CC(C1)CC(NC(=O)c1cn4cc(Cl)ccc4n1)(C3)C2)c1cccc(F)c1 [Example 98, 6-Chloro-imidazo[1,2-a]pyridine-2-carboxylic acid [3-(3-fluoro-benzoylamino)-adamantan-1-yl]-amide] | 63 to 99% |
| O=C(NC12CC3CC(C1)CC(NC(=O)c1ccn4ccnc4c1)(C3)C2)c1cccc(F)c1 [Example 99, Imidazo[1,2-a]pyridine-7-carboxylic acid [3-(3-fluoro-benzoylamino)-adamantan-1-yl]-amide] | 63 to 99% |

| Compound | Emax |
| --- | --- |
| O=C(NC12CC3CC(C1)CC(NC(=O)c1cn4ccccc4n1)(C3)C2)c1cccc(F)c1 [Example 100, Imidazo[1,2-a]pyridine-2-carboxylic acid [3-(3-fluoro-benzoylamino)-adamantan-1-yl]-amide] | 63 to 99% |
| O=C(NC12CC3CC(C1)CC(NC(=O)c1ccc4nccn4c1)(C3)C2)c1cccc(F)c1 [Example 101, Imidazo[1,2-a]pyridine-6-carboxylic acid [3-(3-fluoro-benzoylamino)-adamantan-1-yl]-amide] | 63 to 99% |
| Cc1ccc2nc(C(=O)NC34CC5CC(CC(NC(=O)c6cccc(F)c6)(C5)C3)C4)cn2c1 [Example 102, 6-Methyl-imidazo[1,2-a]pyridine-2-carboxylic acid [3-(3-fluoro-benzoylamino)-adamantan-1-yl]-amide] | 63 to 99% |
| Cc1cccc2nc(C(=O)NC34CC5CC(CC(NC(=O)c6cccc(F)c6)(C5)C3)C4)cn12 [Example 103, 5-Methyl-imidazo[1,2-a]pyridine-2-carboxylic acid [3-(3-fluoro-benzoylamino)-adamantan-1-yl]-amide] | 63 to 99% |
| Cc1ccn2cc(C(=O)NC34CC5CC(CC(NC(=O)c6cccc(F)c6)(C5)C3)C4)nc2c1 [Example 104, 7-Methyl-imidazo[1,2-a]pyridine-2-carboxylic acid [3-(3-fluoro-benzoylamino)-adamantan-1-yl]-amide] | 63 to 99% |
| Cc1cc(C(=O)NC23CC4CC(CC(NC(=O)c5ccccn5)(C4)C2)C3)nc(C)n1 [Example 106, 2,6-Dimethyl-pyrimidine-4-carboxylic acid {3-[(pyridine-2-carbonyl)-amino]-adamantan-1-yl}-amide] | 70 to 99% |
| O=C(NC12CC3CC(C1)CC(NC(=O)c1cc(F)ccn1)(C3)C2)c1ccccn1 [Example 108, 4-Fluoro-pyridine-2-carboxylic acid{3-[(pyridine-2-carbonyl)-amino]-adamantan-1-yl}-amide] | 70 to 99% |
| Cc1cc(C(=O)NC23CC4CC(CC(NC(=O)c5ccccn5)(C4)C2)C3)nn1C [Example 109, Pyridine-2-carboxylic acid {3-[(1,5-dimethyl-1H-pyrazole-3-carbonyl)-amino]-adamantan-1-yl}-amide] | 70 to 99% |
| Cc1nc(C(=O)NC23CC4CC(CC(NC(=O)c5ccccn5)(C4)C2)C3)cs1 [Example 110, Pyridine-2-carboxylic acid {3-[(2-methyl-thiazole-4-carbonyl)-amino]-adamantan-1-yl)-amide] | 70 to 99% |
| O=C(NC12CC3CC(C1)CC(NC(=O)c1ccc(F)cn1)(C3)C2)c1ccccn1 [Example 111, 5-Fluoro-pyridine-2-carboxylic acid {3-[(pyridine-2-carbonyl)-amino]-adamantan-1-yl}-amide] | 70 to 99% |
| O=C(NC12CC3CC(C1)CC(NC(=O)c1ccnc(C(F)(F)F)n1)(C3)C2)c1ccccn1 [Example 112, 2-Trifluoromethyl-pyrimidine-4-carboxylic acid {3-[(pyridine-2-carbonyl)-amino]-adamantan-1-yl}-amide] | 70 to 99% |
| O=C(NC12CC3CC(C1)CC(NC(=O)c1nccc(C(F)(F)F)n1)(C3)C2)c1ccccn1 [Example 113, 4-Trifluoromethyl-pyrimidine-2-carboxylic acid {3-[(pyridine-2-carbonyl)-amino]-adamantan-1-yl}-amide] | 70 to 99% |
| Cc1cccc(C(=O)NC23CC4CC(CC(NC(=O)c5cccc(N(C)C)c5)(C4)C2)C3)n1 [Example 114, 6-Methyl-pyridine-2-carboxylic acid [3-(3-dimethyl-amino-benzoylamino)-adamantan-1-yl]-amide] | 70 to 99% |
| Cc1cccc(C(=O)NC23CC4CC(CC(NC(=O)c5cccnc5)(C4)C2)C3)n1 [Example 115, 6-Methyl-pyridine-2-carboxylic acid {3-[(pyridine-3-carbonyl)-amino]-adamantan-1-yl}-amide] | 70 to 99% |
| Cc1cccc(C(=O)NC23CC4CC(CC(NC(=O)c5ccncc5)(C4)C2)C3)n1 [Example 116, 6-Methyl-pyridine-2-carboxylic acid {3-[(pyridine-4-carbonyl)-amino]-adamantan-1-yl}-amide] | 70 to 99% |
| Cc1cccc(C(=O)NC23CC4CC(C2)CC(NC(=O)c2cccc(N)n2)(C4)C3)n1 [Example 117, 6-Methyl-pyridine-2-carboxylic acid {3-[(6-aminopyridine-2-carbonyl)-amino]-adamantan-1-yl}-amide] | 70 to 99% |
